Here are results for two molecules from US20230026696A1, “TRPV4 RECEPTOR LIGANDS” (UNIVERSITY OF UTAH RESEARCH FOUNDATION, priority 2019, published 2023).

Assay [1] deals with intraocular pressure (IOP). Briefly: In vivo tonometric IOP assay in microbead mouse model of ocular hypertension. The following applies: FIG. 2 right panel; P<0.01 / P<0.001, two-way ANOVA. As to the method: FIG. 1 is a graph showing the effect that two concentrations of topical compound 11 (0.01% and 0.1%), 0.5% timolol, and control PBS had on IOP in the microbead (MB) mouse model of ocular hypertension (N=3 separate experiments, with 7-10 mice per experimental cohort). Error bars=±S.E.M. Ocular hypertension in the mouse model of primary open angle glaucoma (POAG) was induced with intracameral injection of polystyrene microbeads. Antagonist stock solutions (10 mM) were prepared in DMSO, the final concentrations were made in PBS diluted to <0.0001% DMSO.
FIG. 2 is a bar chart showing the cumulative data for pre-IOP elevation cohorts of mouse eyes (N≥3 separate experiments, with 7-10 mice per experimental cohort). Left panel: the IOP data are plotted as % of the control value of the timolol-treated eye cohort. Middle panel: MB injection elevated IOP in all experimental cohorts.
A tonometric assay was used to measured IOP changes in mice models of ocular hypertension over a period of weeks following topical application of the compounds.
To prepare the mice models of ocular hypertension, mice were anesthetized with an intraperitoneal (IP) injection of ketamine/xylazine (90 mg/10 mg/kg of body weight). Eye drops of 0.5% proparacaine hydrochloride with 1% tropicamide ophthalmic solution (Bausch & Lomb) were applied to numb and dilate the eyes of the mice. IOP was elevated in the ipsilateral eye by injecting 2 μl of polystyrene microbeads (7.8 μm FluoSpheres; Bangs Laboratories) with a Hamilton syringe into the anterior chamber over 60 seconds. The contralateral eye was injected with phosphate buffered saline (PBS).
A rebound tonometer was used to measure IOP at 1, 2, 6 and 10 hours post-injection after topical administration of Compounds 11 and 52 and timolol, a known medication for treatment of IOP associated with ocular hypertension and glaucoma. The IOP was determined from the means of 10 to 20 readings, following the protocol described in Ryskamp et al., Sci Rep 6:30583, 2016. […]

The target in assay [2] is T1, TRPV3 (Homo sapiens, UniProt Q8NET8).
T1 construct: expressed in transfected cells
T1 sequence (Q8NET8 1-790): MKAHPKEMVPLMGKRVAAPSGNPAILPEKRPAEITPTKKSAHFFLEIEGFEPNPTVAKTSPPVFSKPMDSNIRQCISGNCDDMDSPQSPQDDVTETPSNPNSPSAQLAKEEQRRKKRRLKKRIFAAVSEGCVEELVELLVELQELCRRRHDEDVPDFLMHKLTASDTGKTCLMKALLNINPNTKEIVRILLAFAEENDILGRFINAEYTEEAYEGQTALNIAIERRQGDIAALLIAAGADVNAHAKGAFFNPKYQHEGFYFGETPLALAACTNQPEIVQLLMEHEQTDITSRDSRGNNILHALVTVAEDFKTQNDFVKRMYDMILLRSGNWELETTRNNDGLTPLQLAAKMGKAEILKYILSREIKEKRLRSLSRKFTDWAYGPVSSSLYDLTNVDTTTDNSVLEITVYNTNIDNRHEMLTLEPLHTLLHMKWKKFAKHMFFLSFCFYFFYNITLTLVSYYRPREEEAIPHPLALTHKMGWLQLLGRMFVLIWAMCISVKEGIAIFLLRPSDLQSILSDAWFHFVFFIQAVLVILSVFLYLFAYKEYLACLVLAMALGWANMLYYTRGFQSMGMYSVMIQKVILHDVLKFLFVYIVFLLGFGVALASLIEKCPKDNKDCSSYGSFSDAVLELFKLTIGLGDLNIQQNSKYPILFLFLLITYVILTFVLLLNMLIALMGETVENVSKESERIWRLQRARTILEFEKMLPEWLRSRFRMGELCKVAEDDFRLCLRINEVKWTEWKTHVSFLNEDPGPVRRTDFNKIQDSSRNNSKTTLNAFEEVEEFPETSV
In words: Selectivity Ca2+ flux assay, TRPV3 stably over-expressed in HEK-293 cells. Type of assay: cell-based. The following applies: agonist carvacrol (300 μM). The protocol: (§1) To determine selectivity of the various test compounds for TRPV4, select compounds with activity in the TRPV4 fluorometric cell-based Ca^2+ flux assays were also tested for inhibition of human TRPA1 stably over-expressed in HEK-293 cells, TRPM8 stably over-expressed in HEK-293 cells, TRPV3 stably over-expressed in HEK-293 cells, and TRPV1 stably overexpressed in human lung epithelial (BEAS-2B) cells. The assays were conducted substantially as described above for HEK-293 cells that stably overexpress TRPV4, although for TRPV1, the BEAS-2B cells were maintained in LHC-9 media containing Geneticin (300 μg/mL) and were loaded with Fluo-4AM at room temperature. The agonist for TRPA1 was 2,4-ditert butylphenol (50 μM), for TRPM8 was icilin (50 μM), for TRPV3 was carvacrol (300 μM), and for TRPV1 was nonivamide (5 μM). All other aspects of the assay described above were the same.

Assay [3] addresses T2, TRPV1 (Homo sapiens, UniProt Q8NER1).
T2 construct: expressed in transfected cells
In words: Selectivity Ca2+ flux assay, TRPV1 stably overexpressed in human lung epithelial (BEAS-2B) cells. Format: cell-based. The settings on record: agonist nonivamide (5 μM). The protocol:
as §1

Assay [4] concerns the target T3, TRPM8 (Homo sapiens, UniProt Q7Z2W7).
T3 construct: expressed in transfected cells
Briefly: Selectivity Ca2+ flux assay, TRPM8 stably over-expressed in HEK-293 cells. Format: cell-based. The settings on record: agonist icilin (50 μM). The protocol: as §1

T2 sequence (Q8NER1 whole entry): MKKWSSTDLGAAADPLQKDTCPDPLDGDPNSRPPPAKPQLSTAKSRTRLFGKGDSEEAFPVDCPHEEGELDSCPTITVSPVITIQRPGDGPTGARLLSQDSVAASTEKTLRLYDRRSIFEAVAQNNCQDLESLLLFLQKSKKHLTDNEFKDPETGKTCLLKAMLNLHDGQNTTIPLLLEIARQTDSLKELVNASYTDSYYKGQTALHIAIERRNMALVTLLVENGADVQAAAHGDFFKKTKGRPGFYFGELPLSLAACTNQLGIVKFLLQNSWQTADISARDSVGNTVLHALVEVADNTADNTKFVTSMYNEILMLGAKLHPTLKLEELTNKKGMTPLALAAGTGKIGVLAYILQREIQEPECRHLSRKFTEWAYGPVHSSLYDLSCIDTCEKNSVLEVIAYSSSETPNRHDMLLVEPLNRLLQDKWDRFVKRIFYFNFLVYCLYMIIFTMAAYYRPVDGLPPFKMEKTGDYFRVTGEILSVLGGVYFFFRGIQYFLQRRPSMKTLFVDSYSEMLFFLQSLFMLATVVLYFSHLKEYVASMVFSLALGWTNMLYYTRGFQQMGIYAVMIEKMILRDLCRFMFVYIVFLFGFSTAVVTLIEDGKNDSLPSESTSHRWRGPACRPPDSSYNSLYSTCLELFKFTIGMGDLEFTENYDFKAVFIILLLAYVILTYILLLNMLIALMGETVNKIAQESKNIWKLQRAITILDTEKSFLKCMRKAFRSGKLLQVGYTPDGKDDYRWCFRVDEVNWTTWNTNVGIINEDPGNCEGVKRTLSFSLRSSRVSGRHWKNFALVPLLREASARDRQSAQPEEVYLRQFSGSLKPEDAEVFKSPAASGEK
T3 sequence (Q7Z2W7 whole entry): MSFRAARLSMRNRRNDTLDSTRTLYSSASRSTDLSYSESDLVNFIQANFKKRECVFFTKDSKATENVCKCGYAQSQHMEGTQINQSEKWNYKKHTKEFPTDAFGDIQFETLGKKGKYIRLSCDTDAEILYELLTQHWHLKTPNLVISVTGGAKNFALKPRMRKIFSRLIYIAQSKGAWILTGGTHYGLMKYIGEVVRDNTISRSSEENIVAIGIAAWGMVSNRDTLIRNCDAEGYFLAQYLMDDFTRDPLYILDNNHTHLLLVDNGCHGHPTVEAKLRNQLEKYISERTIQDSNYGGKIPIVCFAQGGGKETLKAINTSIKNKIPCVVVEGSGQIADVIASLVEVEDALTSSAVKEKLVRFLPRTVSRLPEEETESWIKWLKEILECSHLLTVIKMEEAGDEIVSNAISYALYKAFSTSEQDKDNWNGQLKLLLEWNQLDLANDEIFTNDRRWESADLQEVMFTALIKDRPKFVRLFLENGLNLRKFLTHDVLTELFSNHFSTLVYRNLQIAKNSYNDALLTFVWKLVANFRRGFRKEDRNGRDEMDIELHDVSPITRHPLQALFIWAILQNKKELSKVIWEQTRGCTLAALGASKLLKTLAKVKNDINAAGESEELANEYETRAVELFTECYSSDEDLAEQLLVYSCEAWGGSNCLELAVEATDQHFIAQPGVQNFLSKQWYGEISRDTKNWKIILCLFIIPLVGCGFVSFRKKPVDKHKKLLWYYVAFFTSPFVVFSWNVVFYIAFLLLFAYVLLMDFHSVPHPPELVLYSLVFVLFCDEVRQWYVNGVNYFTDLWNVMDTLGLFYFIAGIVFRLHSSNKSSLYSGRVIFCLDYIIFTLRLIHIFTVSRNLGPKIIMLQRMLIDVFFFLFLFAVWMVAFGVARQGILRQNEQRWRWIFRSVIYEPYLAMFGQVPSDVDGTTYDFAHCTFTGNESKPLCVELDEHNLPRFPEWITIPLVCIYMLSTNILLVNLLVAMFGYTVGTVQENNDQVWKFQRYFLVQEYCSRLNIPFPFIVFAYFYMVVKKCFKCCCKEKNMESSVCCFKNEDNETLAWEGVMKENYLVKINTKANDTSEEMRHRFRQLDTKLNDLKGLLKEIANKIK

On to `N#Cc1ccc(OCC2(CO)CN(S(=O)(=O)c3ccc(Cl)cc3Cl)C2)cc1F` [Compound 11, 4-((1-((2,4-Dichlorophenyl)sulfonyl)-3-(hydroxymethyl)azetidin-3-yl)methoxy)-2-fluorobenzonitrile], for which the “IOP levels in MB-treated eyes, topical application” value in assay [1] is given as “significantly lowered IOP levels”. Also, the 50% inhibitory concentration (IC50) was > 100 µM in assay [2], 24.3 µM in assay [3] and 14.4 µM in assay [4].

As for `Cl.N#Cc1ccc(OCC2(N)CN(S(=O)(=O)c3ccc(Cl)cc3Cl)C2)cc1F` [Compound 52, 4-((3-Amino-1-((2,4-dichlorophenyl)sulfonyl)azetidin-3-yl)methoxy)-2-fluorobenzonitrile hydrochloride salt], the “IOP levels in MB-treated eyes, topical application” value in assay [1] is “significantly lowered IOP levels”. In addition, the half-inhibitory concentration (IC50) in assay [2] is > 100 µM; in assay [3], 60 µM; in assay [4], 35.9 µM.
